From ChEMBL document CHEMBL2150926 (J Med Chem, 2011)
Converted amounts (≈) assume the structure as drawn.

Experiments:
[1] = Immunosuppressive activity in human lymphocytes assessed as alloantigen-induced T cell proliferation by mixed lymphocyte reaction assay; format: functional, cell-based
Rattus norvegicus [2] = test: Dose normalized AUC (0 to infinity) in OFA rat at 5 mg/kg, iv; format: ADME, organism-based; design: dose 5 mg/kg, route intravenous; conditions: in vivo
[3] = Oral bioavailability in OFA rat at 20 mg/kg; format: ADME, organism-based; conditions: in vivo
[4] = Volume of distribution at steady state in OFA rat at 5 mg/kg, iv; format: ADME, organism-based; design: dose 5 mg/kg, route intravenous; conditions: in vivo, read-out: Vdss
[5] = biological target: Protein kinase C beta type (Homo sapiens, UniProt P05771); test: Inhibition of PKCbeta-1 by scintillation proximity assay
Chain of Protein kinase C beta type (P05771 whole entry): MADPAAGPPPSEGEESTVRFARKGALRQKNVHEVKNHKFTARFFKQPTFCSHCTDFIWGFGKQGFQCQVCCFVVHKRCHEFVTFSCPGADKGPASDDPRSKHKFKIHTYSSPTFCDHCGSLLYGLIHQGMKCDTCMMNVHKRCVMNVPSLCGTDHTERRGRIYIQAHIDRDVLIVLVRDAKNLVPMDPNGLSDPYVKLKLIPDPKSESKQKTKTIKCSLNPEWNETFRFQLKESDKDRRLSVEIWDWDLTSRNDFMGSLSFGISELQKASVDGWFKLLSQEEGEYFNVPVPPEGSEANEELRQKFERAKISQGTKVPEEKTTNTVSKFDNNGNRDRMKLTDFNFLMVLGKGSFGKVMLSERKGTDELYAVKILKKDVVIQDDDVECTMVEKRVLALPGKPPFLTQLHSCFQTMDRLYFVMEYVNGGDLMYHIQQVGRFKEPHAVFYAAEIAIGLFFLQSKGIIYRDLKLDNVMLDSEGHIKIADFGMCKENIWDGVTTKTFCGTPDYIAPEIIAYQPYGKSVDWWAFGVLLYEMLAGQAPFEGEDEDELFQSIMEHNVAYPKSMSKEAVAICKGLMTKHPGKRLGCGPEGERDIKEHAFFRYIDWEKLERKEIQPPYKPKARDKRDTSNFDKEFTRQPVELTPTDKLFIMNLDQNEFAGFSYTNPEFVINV

[6] = Immunosuppressive activity in mouse lymphocytes assessed as alloantigen-induced T cell proliferation by mixed lymphocyte reaction assay; format: functional, cell-based
[7] = Tmax in OFA rat at 20 mg/kg, po; format: ADME, organism-based; design: dose 20 mg/kg, route oral; conditions: in vivo
[8] = Total plasma clearance in OFA rat at 5 mg/kg, iv; format: ADME, organism-based; design: dose 5 mg/kg, route intravenous
[9] = biological target: Protein kinase C delta type (Homo sapiens, UniProt Q05655); test: Inhibition of PKCdelta by scintillation proximity assay
Chain of Protein kinase C delta type (Q05655 whole entry): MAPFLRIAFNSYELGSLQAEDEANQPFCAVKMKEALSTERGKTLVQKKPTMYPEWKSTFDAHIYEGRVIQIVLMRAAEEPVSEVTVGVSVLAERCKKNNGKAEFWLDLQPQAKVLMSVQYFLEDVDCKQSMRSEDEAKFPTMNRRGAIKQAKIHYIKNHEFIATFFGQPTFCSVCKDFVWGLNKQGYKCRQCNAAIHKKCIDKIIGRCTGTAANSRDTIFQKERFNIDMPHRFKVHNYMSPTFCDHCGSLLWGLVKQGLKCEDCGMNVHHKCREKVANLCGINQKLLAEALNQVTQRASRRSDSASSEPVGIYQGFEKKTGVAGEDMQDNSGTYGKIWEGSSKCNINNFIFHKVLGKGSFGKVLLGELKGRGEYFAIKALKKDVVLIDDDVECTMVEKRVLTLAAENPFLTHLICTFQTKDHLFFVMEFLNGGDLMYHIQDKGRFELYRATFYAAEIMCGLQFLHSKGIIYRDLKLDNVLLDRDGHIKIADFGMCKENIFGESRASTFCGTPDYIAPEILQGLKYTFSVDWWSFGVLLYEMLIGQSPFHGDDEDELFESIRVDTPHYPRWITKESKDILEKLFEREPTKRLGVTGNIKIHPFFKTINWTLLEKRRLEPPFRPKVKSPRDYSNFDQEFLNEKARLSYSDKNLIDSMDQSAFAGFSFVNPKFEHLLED

[10] = Intrinsic clearance in OFA rat liver microsomes at 20 mg/kg, po; format: ADME, Microsome; design: dose 20 mg/kg, route oral; conditions: read-out: CLH
[11] = Intrinsic solubility of the compound at pH 6.8; format: physicochemical; conditions: buffer, read-out: Intrinsic_solubility
[12] = Elimination half life in OFA rat at 5 mg/kg, iv; format: ADME, organism-based; design: dose 5 mg/kg, route intravenous; conditions: in vivo, read-out: beta t1/2 (converted)
[13] = biological target: Protein kinase C alpha type (Homo sapiens, UniProt P17252); test: Inhibition of PKCalpha by scintillation proximity assay
P-gp (human) = test: Efflux ratio of permeability from basolateral to apical to apical to basolateral in MDCK cells transfected with human p-gp gene; format: ADME, cell-based, Canis lupus familiaris; conditions: dog, MDCK-MDR1
[14] = Octanol-water partition coefficient, log P of the compound; format: physicochemical
[15] = Lipophilicity, log D of the compound at pH 6.8; format: physicochemical; conditions: buffer
Rattus norvegicus [16] = test: AUC (0 to 24 hrs) in Wistar rat at 30 mg/kg, po administered as single dose; format: ADME, organism-based, Plasma; design: time < 24 hr, dose 30 mg/kg, route oral; conditions: in vivo
[17] = biological target: Protein kinase C eta type (Homo sapiens, UniProt P24723); test: Inhibition of PKCeta by scintillation proximity assay
Chain of Protein kinase C eta type (P24723 whole entry): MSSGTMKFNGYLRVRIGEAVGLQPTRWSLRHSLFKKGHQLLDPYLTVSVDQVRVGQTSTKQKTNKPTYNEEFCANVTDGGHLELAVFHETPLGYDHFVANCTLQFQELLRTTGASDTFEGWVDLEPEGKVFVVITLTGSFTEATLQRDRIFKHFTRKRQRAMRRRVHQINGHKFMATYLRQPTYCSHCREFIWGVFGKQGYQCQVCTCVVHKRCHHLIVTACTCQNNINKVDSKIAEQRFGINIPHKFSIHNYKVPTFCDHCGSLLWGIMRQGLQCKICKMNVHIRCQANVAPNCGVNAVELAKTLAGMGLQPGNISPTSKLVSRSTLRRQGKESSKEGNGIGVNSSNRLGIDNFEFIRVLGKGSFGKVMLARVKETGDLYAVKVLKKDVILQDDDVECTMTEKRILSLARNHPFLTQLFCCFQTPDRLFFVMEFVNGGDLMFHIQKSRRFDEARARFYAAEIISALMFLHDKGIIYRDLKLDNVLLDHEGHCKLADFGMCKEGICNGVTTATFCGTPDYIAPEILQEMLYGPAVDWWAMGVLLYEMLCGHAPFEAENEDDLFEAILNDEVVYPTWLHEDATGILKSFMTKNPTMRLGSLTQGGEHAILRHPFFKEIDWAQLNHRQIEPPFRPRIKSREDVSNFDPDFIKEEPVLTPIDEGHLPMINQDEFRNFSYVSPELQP

[18] = biological target: Protein kinase C theta type (Homo sapiens, UniProt Q04759); test: Inhibition of PKCtheta by scintillation proximity assay
Chain of Protein kinase C theta type (Q04759 whole entry): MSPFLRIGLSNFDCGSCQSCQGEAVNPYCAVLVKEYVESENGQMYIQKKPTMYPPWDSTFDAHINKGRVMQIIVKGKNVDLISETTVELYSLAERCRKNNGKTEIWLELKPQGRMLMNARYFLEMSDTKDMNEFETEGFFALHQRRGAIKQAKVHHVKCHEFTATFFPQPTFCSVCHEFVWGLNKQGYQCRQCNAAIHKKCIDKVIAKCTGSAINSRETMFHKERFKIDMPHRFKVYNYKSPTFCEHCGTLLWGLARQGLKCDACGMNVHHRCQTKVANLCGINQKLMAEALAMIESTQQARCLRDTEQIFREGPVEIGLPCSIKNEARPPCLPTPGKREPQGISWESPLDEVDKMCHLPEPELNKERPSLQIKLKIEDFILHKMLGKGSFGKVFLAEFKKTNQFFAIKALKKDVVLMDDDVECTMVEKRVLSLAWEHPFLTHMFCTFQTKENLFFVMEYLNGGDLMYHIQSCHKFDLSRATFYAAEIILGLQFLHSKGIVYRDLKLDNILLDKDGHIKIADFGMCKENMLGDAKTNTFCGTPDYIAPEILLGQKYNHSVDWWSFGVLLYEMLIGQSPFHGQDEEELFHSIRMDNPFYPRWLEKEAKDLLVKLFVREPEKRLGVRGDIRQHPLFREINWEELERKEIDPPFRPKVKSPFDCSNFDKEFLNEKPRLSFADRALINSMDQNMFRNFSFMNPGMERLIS

[19] = biological target: T1, Protein kinase C epsilon type (Homo sapiens, UniProt Q02156); test: Inhibition of PKCepsilon by scintillation proximity assay
T1 sequence (Q02156 whole entry): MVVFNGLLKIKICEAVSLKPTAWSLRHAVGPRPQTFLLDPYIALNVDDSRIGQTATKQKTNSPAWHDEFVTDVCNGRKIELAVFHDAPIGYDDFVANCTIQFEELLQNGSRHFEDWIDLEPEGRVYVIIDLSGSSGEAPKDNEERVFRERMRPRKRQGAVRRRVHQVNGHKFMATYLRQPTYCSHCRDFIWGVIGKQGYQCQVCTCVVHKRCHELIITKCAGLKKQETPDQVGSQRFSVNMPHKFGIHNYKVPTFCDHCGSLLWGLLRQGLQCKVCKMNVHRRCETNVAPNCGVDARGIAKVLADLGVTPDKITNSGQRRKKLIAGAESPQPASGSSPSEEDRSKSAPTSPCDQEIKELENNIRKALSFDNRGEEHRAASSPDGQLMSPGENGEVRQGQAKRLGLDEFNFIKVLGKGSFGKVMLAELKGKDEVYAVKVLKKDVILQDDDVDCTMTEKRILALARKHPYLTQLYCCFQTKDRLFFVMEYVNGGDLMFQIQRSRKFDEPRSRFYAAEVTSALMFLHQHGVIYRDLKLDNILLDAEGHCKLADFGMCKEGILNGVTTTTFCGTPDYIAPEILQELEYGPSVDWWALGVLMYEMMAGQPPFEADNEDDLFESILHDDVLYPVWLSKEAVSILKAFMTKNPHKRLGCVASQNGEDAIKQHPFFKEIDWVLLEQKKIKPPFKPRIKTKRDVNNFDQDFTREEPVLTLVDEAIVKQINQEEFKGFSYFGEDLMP

Rattus norvegicus [20] = test: Dose normalized AUC (0 to infinity) in OFA rat 20 mg/kg, po; format: ADME, organism-based; design: dose 20 mg/kg, route oral; conditions: in vivo

AUC/dose (Rattus norvegicus [2]): 671 ng·h/mL
bioavailability [3]: 24%
Vd [4]: 10 L/kg
IC50 [5]: 1.4 nM
Tmax [7]: 30 min
clearance [8]: 25 mL/min/kg
IC50 [9]: 1 nM
microsomal CLint [10]: 112 µL/min/mg
solubility [11]: 195 µg/mL (≈ 445 µM)
half-life [12]: 276 min
IC50 [13]: 1.4 nM
efflux ratio (P-gp (human)): 64.4
logP [14]: 2.3
logD [15]: 0.6
AUC (Rattus norvegicus [16]): 1729 ng·h/g
IC50 [17]: 3.3 nM
IC50 [18]: 1.2 nM
IC50 [19]: 3.8 nM
AUC/dose (Rattus norvegicus [20]): 161 ng·h/mL
Structure (SMILES): Cn1cc(C2=C(c3nc(N4CCNCC4)nc4ccccc34)C(=O)NC2=O)c2ccccc21
IC50 [1]: 99 nM
IC50 [6]: 378 nM
